{
  "source": "paper PMC10117764",
  "about": "“The roles of serine hydrolases and serum albumin in alisol B 23-acetate hydrolysis in humans” (Frontiers in Pharmacology, 2023)",
  "key": {"[1]": {"assay": "Hydrolytic half-life of AB23A in human liver microsomes", "assay_type": "in vitro ADME", "settings": "human liver microsomes (HLMs), HLMs 0.1 mg/mL, PBS pH 7.4, read-out: t1/2 (hydrolytic/metabolic half-life)", "experimental": "The hydrolytic half-lives (t1/2) of AB23A in human plasma and different human tissue preparations were carried out according to the procedure of in vitro metabolic stability studies ([Ge et al., 2013]). The incubation mixture (1,000 μL) consisted of PBS (pH 7.4), enzyme sources (HLMs/HIMs/human plasma) and AB23A. 25% diluted human plasma was used, the protein concentrations of other tissue microsomes were 0.1 mg/mL. The 100 μL incubation mixture was moved to another containing ice-cold acetonitrile tube at different time points (0, 5, 15, 30, 45, 60, 90, 120 min). All samples were centrifuged for 30 min at 20,000 g 4°C and took the supernatants for LC-UV analysis.\nThe incubation conditions were as follows: the classic incubation system included 100 mM potassium phosphate buffer (PBS, pH 7.4), enzyme sources, and AB23A. In all incubations, PBS and enzyme sources were pre-incubation at 37 °C for 3 min and the reaction was started by adding AB23A (the organic solvent content at most 1%). After reacting 1 h, ice-cold acetonitrile was added to terminate the reaction and precipitate proteins. The samples were centrifuged for 30 min at 20000 × g, 4 °C, and the supernatants were taken for further LC-UV analysis."}, "[2]": {"assay": "Hydrolytic half-life of AB23A in mouse liver microsomes", "assay_type": "in vitro ADME", "settings": "mouse liver microsomes (MLMs), pH 7.4, MLMs 0.10 mg/mL, read-out: T1/2 (hydrolytic half-life)"}, "[3]": {"assay": "Stability of AB23A in PBS under physiological conditions", "assay_type": "physicochemical", "settings": "pH 7.4 at 37°C", "experimental": "AB23A and its hydrolytic metabolite were separated by ACQUITY UPLC I-Class plus system (Waters Corporation, Milford, United States) coupled with ACQUITY UPLC HSS T3 (100 mm × 2.1 mm, 1.8 μm, Waters, United States), and identified by using Q-Exactive quadru-pole-Orbitrap mass spectrometer. The mobile phases consisted of 0.1% formic acid in water (A) and acetonitrile (B) with the elution gradients were as follows: 0–2 min, 5% B, 2–4 min, 5%–30% B, 4–8 min, 30%–50% B, 8–10 min, 50%–80% B, 10–14 min, 80%–100%, 14–15 min, 100% B, 15–15.1 min, 100%–5% B, 15.1–16 min, 5% B. The flow rate was set at 0.35 mL/min, while the temperature of chromatographic column was maintained at 45°C. The mass range was set from m/z 80 to 1,200. Other MS conditions were as follows: Resolution and AGC target were set at 30000 and 1e^6, the maximum IT was 50 ms and loop count was set 10. (N) CE/stepped (N)CE was set 10, 20, 40 ev. All data were analyzed by PeakView 2.2 software and Thermo Xcalibur.\nThe incubation conditions were as follows: the classic incubation system included 100 mM potassium phosphate buffer (PBS, pH 7.4), enzyme sources, and AB23A. In all incubations, PBS and enzyme sources were pre-incubation at 37 °C for 3 min and the reaction was started by adding AB23A (the organic solvent content at most 1%). […]"}, "hSA": {"target": "T1, hSA (Homo sapiens, UniProt P02768)", "T1 construct": "purchased Sigma-Aldrich Lot#SLCC9268", "T1 sequence (P02768 25-609)": "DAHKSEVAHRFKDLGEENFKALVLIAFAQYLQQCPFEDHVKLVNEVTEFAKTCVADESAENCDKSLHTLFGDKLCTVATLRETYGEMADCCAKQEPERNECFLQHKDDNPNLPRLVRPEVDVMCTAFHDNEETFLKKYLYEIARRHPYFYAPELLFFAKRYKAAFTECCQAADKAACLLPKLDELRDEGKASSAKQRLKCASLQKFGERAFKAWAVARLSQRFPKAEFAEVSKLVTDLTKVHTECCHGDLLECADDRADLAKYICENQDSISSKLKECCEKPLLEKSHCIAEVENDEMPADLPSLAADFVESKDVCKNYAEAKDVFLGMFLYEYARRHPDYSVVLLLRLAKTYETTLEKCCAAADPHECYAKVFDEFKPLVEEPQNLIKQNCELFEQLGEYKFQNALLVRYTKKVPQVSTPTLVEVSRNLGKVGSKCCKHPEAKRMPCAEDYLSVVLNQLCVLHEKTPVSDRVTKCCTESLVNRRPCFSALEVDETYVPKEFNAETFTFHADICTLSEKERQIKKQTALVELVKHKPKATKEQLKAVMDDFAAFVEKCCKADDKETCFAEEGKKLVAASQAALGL", "assay": "Identification of the modification sites of hSA by AB23A (LC-MS/MS of tryptic peptides)", "settings": "hSA 1 mg/mL, AB23A 50 μM, 37°C; following co-incubation", "experimental": "[…] The soluble impurities and unbound molecules were washed by ultrapure water (200 μL) ([Nel et al., 2015]). After denaturation for 1 h in 8 M urea solution at 37°C, the mixture was alkylated with dithiothreitol and iodoacetamide in the dark, washed twice with 200 μL ultrapure water, and finally washed with 200 μL 50 mM ammonium bicarbonate. The samples were digested overnight with 2 μL trypsin in 50 mM ammonium bicarbonate solution at an enzyme-to-substrate ratio of 1:50 (w/w). The trypsin digest was collected and washed with 50 μL NaCl solution (500 mM). The peptides were desalted by the MonoSpin C18 (GL Sciences). Subsequently, the eluents were dried by the vacuum pump and resolved in 40 μL 0.1% formic acid for analyses (please refer to the Supplementary Material for more details)."}, "hCES1A": {"target": "T2, hCES1A (Homo sapiens, UniProt P23141)", "T2 construct": "10xHis; made in house; host or cells: HEK293-F cells, pTT5 vector, purified from conditioned medium", "T2 sequence (P23141 18-563)": "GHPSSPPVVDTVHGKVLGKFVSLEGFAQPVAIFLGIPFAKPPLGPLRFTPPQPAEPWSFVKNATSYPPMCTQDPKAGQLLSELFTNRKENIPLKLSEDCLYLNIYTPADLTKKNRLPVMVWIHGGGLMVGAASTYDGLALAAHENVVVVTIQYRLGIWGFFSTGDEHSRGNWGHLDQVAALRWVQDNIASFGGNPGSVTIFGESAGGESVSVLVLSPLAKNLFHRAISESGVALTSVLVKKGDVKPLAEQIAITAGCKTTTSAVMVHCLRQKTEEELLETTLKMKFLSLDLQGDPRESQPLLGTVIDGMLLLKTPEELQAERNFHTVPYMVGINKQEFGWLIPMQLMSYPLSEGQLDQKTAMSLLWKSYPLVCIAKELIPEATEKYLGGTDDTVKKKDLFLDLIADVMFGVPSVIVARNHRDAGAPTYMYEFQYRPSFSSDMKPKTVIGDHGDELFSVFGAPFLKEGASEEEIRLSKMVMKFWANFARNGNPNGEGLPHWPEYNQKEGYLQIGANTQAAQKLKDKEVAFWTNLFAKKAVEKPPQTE", "assay": "Reaction phenotyping assay of AB23A hydrolysis, hCES1A", "assay_type": "in vitro ADME", "settings": "hCES1A 5 μg/mL, AB23A 20 μM, 60 min, pH 7.4 at 37°C", "experimental": "The hydrolytic rates of AB23A in different human recombinant enzymes (hCES1A, hCES2A, hPL, hIAH1, hNotum, hAchE, hBchE, hSA, hCTSA, hMAGL) were assayed. The incubation system included PBS, each tested enzyme (5 μg/mL, final concentration), and AB23A (20 μM). After incubation for 1 h at 37°C, ice-cold acetonitrile was added to terminate the reaction and precipitate proteins. The supernatants by centrifuging were used to quantify the formation rates of AB by LC-UV analysis. The detection wavelength of AB was 196 nm."}},
  "data": [
    {"smiles": "CC(=O)O[C@H](C[C@@H](C)C1=C2C[C@H](O)C3[C@@]4(C)CCC(=O)C(C)(C)C4CC[C@]3(C)[C@@]2(C)CC1)[C@H]1OC1(C)C", "note": "(some centres unmarked) [AB23A, Alisol B 23-acetate]", "values": [
      {"measurement": "half-life", "setting": "[1]", "value": "41 ± 0.01", "unit": "min"},
      {"measurement": "half-life", "setting": "[2]", "value": "2.3 ± 0.01", "unit": "min"},
      {"measurement": "Stability in PBS", "setting": "[3]", "value": "very stable"},
      {"measurement": "Number of lysines in hSA acylated by AB23A", "setting": "hSA", "value": 39},
      {"measurement": "Hydrolytic rate (formation of AB) in reaction phenotyping", "setting": "hCES1A", "value": "also catalyzed this hydrolytic reaction"}
    ]}
  ]
}
